According to the supplement of paper PMC10307832:

Key:
Experiment in all cases: relative viability (nuclei count vs DMSO), 5 days (fraction); higher = more cells survive
IMD-0354 + Phenformin = compound: O=C(Nc1cc(C(F)(F)F)cc(C(F)(F)F)c1)c1cc(Cl)ccc1O [IMD-0354] + N=C(N)NC(=N)NCCc1ccccc1 [Phenformin] (partner 250 µM)
In short: (§1)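 After 5 days of treatment, lung cancer cells in 1536-well plates were fixed and stained in a single step (final 0.05% Triton X-100, 1% formaldehyde, 1 ug/ml Hoechst) and their nuclei counted on 4× images. Treatment had been applied by pin tool the day after seeding as one drug alone or as a fixed anchor-drug dose with five library-drug doses (not always all listed) in √10 steps. Relative viability is the nuclei count of treated wells divided by that of vehicle wells, and values are medians of duplicate plates.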

IMD-0354 + Tozasertib = compound: O=C(Nc1cc(C(F)(F)F)cc(C(F)(F)F)c1)c1cc(Cl)ccc1O [IMD-0354] + Cc1cc(Nc2cc(N3CCN(C)CC3)nc(Sc3ccc(NC(=O)C4CC4)cc3)n2)n[nH]1 [Tozasertib] (partner 0.1 µM)
In short: as §1

IMD-0354 + Palbociclib = compound: O=C(Nc1cc(C(F)(F)F)cc(C(F)(F)F)c1)c1cc(Cl)ccc1O [IMD-0354] + CC(=O)c1c(C)c2cnc(Nc3ccc(N4CCNCC4)cn3)nc2n(C2CCCC2)c1=O [Palbociclib] (partner 0.5 µM)
In short: as §1

IMD-0354 + Alpelisib = compound: O=C(Nc1cc(C(F)(F)F)cc(C(F)(F)F)c1)c1cc(Cl)ccc1O [IMD-0354] + Cc1nc(NC(=O)N2CCC[C@H]2C(N)=O)sc1-c1ccnc(C(C)(C)C(F)(F)F)c1 [Alpelisib] (partner 2 µM)
In short: as §1

Row | Cell Line | relative viability (IMD-0354 + Phenformin; first compound 0.04 µM) | relative viability (IMD-0354 + Phenformin; first compound 0.1265 µM) | relative viability (IMD-0354 + Phenformin; first compound 0.4 µM) | relative viability (IMD-0354 + Phenformin; first compound 1.265 µM) | relative viability (IMD-0354 + Phenformin; first compound 4 µM) | relative viability (IMD-0354 + Tozasertib; first compound 0.04 µM) | relative viability (IMD-0354 + Tozasertib; first compound 0.1265 µM) | relative viability (IMD-0354 + Tozasertib; first compound 0.4 µM) | relative viability (IMD-0354 + Tozasertib; first compound 1.265 µM) | relative viability (IMD-0354 + Tozasertib; first compound 4 µM) | relative viability (IMD-0354 + Palbociclib; first compound 0.04 µM) | relative viability (IMD-0354 + Palbociclib; first compound 0.1265 µM) | relative viability (IMD-0354 + Palbociclib; first compound 0.4 µM) | relative viability (IMD-0354 + Palbociclib; first compound 1.265 µM) | relative viability (IMD-0354 + Palbociclib; first compound 4 µM) | relative viability (IMD-0354 + Alpelisib; first compound 0.04 µM) | relative viability (IMD-0354 + Alpelisib; first compound 0.1265 µM) | relative viability (IMD-0354 + Alpelisib; first compound 0.4 µM) | relative viability (IMD-0354 + Alpelisib; first compound 1.265 µM) | relative viability (IMD-0354 + Alpelisib; first compound 4 µM)
1 | NCI-H2009 | 0.502 | 0.324 | 0.228 | 0.137 | 0.15 | 0.877 | 0.752 | 0.51 | 0.24 | 0.139 | 0.179 | 0.222 | 0.191 | 0.103 | 0.112 | 1.14 | 1.03 | 0.929 | 0.239 | 0.127
2 | NCI-H2023 | 0.446 | 0.409 | 0.223 | 0.109 | 0.147 | 0.338 | 0.296 | 0.23 | 0.126 | 0.117 | 0.495 | 0.346 | 0.273 | 0.316 | 0.241 | 0.696 | 0.577 | 0.439 | 0.312 | 0.122
3 | NCI-H2085 | 0.641 | 0.69 | 0.515 | 0.322 | 0.232 | 0.941 | 0.797 | 0.681 | 0.459 | 0.405 | 0.461 | 0.439 | 0.433 | 0.281 | 0.393 | 0.899 | 0.888 | 0.764 | 0.492 | 0.269
4 | NCI-H2087 | 0.481 | 0.258 | 0.206 | 0.119 | 0.128 | 0.273 | 0.228 | 0.167 | 0.167 | 0.126 | 0.238 | 0.196 | 0.21 | 0.104 | 0.0948 | 1.04 | 0.938 | 0.329 | 0.136 | 0.131
5 | NCI-H2126 | 0.561 | 0.47 | 0.424 | 0.309 | 0.222 | 0.915 | 0.942 | 0.573 | 0.348 | 0.294 | 0.35 | 0.361 | 0.364 | 0.316 | 0.311 | 0.784 | 0.722 | 0.682 | 0.714 | 0.263
6 | NCI-H2170 | 0.418 | 0.37 | 0.301 | 0.229 | 0.221 | 0.788 | 0.779 | 0.377 | 0.624 | 0.226 | 0.425 | 0.394 | 0.342 | 0.385 | 0.229 | 0.752 | 0.785 | 0.603 | 0.835 | 0.373
7 | NCI-H2228 | 0.372 | 0.224 | 0.233 | 0.084 | 0.165 | 0.181 | 0.256 | 0.275 | 0.185 | 0.175 | 0.618 | 0.618 | 0.683 | 0.21 | 0.322 | 0.686 | 0.738 | 0.631 | 0.263 | 0.182
8 | NCI-H2347 | 0.396 | 0.381 | 0.272 | 0.149 | 0.218 | 0.767 | 0.513 | 0.563 | 0.505 | 0.233 | 0.39 | 0.418 | 0.362 | 0.41 | 0.405 | 1.05 | 1.12 | 0.772 | 0.498 | 0.37
